In patent publication EP3623369A1, “NOVEL MORPHOLINYL AMINE COMPOUNDS FOR THE TREATMENT OF AUTOIMMUNE DISEASE” (F. Hoffmann-La Roche AG, priority 2018, dated 2020):
pIC50: −log10 of the molar value.

Target: T1, hTLR9 (Homo sapiens, UniProt Q9NR96)
T1 sequence (Q9NR96 26-1032): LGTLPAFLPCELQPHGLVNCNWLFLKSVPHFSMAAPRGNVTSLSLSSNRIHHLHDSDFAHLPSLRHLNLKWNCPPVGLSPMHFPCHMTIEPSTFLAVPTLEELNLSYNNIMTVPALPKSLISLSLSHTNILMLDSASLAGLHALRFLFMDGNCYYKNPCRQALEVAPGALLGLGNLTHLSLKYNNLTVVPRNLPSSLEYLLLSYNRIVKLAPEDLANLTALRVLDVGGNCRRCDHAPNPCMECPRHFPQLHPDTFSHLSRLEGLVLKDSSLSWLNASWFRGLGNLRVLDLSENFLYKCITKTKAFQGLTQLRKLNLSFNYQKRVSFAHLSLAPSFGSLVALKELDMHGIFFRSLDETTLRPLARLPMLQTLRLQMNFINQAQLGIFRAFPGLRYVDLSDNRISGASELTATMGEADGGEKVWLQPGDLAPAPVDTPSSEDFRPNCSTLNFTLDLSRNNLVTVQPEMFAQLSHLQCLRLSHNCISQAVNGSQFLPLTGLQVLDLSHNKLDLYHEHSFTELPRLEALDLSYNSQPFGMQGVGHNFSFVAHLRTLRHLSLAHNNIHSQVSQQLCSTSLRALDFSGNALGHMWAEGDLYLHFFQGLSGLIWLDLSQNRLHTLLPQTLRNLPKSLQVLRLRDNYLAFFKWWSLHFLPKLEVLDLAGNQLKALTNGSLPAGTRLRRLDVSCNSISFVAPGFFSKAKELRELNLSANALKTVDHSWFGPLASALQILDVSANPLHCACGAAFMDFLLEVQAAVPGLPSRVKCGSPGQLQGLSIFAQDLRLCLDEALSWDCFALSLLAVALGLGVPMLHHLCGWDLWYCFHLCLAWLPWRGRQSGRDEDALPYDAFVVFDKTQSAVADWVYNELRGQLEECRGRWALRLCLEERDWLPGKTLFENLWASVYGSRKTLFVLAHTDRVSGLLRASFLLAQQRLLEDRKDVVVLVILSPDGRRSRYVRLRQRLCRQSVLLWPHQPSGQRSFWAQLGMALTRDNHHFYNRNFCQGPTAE
Assay: HEK293-Blue-hTLR-9 cells assay (SEAP reporter, ODN2006 stimulation)
Assay type: cell-based
Conditions: HEK293-Blue-hTLR9 cells, ODN2006, 20 hrs; 0.032 is the lowest tested concentration; read-out: HEK/hTLR9 IC50
Summary of the method: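 HEK293-Blue cells with an NF-κB/AP-1-driven SEAP reporter were exposed to serially diluted compound (1% DMSO final) plus ODN2006 for 20 h at 37 °C. Supernatant SEAP was developed with QUANTI-Blue for 2 h at 37 °C and absorbance read at 620–655 nm; antagonism appears as reduced reporter signal.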

Structure (SMILES) | pIC50
C[C@@H]1CN(c2ccc(C#N)c3ncccc23)C[C@H](CN2Cc3ccccc3C2)O1 [Example R3, 5-[(2S,6R)-2-(isoindolin-2-ylmethyl)-6-methyl-morpholin-4-yl]quinoline-8-carbonitrile, reference compound] | 5.26
C[C@@H]1CN(c2ccc(C#N)c3ncccc23)C[C@H](CN2Cc3cnc(N4CCNCC4)cc3C2)O1 [Example 61, 5-[(2R,6S)-2-methyl-6-[(6-piperazin-1-yl-1,3-dihydropyrrolo[3,4-c]pyridin-2-yl)methyl]morpholin-4-yl]quinoline-8-carbonitrile] | 7.23
C[C@@H]1CN(c2ccc(Cl)c3ncccc23)C[C@H](CN2Cc3ccc(N4CCNCC4)cc3C2)O1 [Example 31, (2R,6S)-4-(8-chloro-5-quinolyl)-2-methyl-6-[(5-piperazin-1-ylisoindolin-2-yl)methyl]morpholine] | 6.77

Further lines, results first:

pIC50 | Structure (SMILES)
7.20 | C[C@@H]1CN(c2ccc(C#N)c3ncsc23)C[C@H](CN2Cc3cc(N4CCNCC4)cnc3C2)O1 [Example 25, 7-[(2R,6S)-2-methyl-6-[(3-piperazin-1-yl-5,7-dihydropyrrolo[3,4-b]pyridin-6-yl)methyl]morpholin-4-yl]-1,3-benzothiazole-4-carbonitrile]
7.32 | C[C@@H]1CN(c2ccc(C#N)n3nccc23)C[C@H](CN2Cc3cc(N4CCNCC4)cnc3C2)O1 [Example 18, 4-[(2R,6S)-2-methyl-6-[(3-piperazin-1-yl-5,7-dihydropyrrolo[3,4-b]pyridin-6-yl)methyl]morpholin-4-yl]pyrazolo[1,5-a]pyridine-7-carbonitrile]
6.76 | C[C@@H]1CN(c2ccc(Cl)c3nccnc23)C[C@H](CN2Cc3ccc(N4CCNCC4)cc3C2)O1 [Example 33, (2R,6S)-4-(8-chloroquinoxalin-5-yl)-2-methyl-6-[(5-piperazin-1-ylisoindolin-2-yl)methyl]morpholine]
